The nature of data set [1]: Human plasma half-life assay (LC-MS). It is filed as in vitro ADME. The following applies: incubated at 37° C., read-out: Human Plasma T½ (converted). The essentials: (§1)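 Aliquots taken from human or rat plasma at time points up to 72 h, quenched with formic acid and acetonitrile, centrifuged. Supernatant analyzed by LC-MS (ESI, positive ion, full scan) on a C8 column with a water/acetonitrile 1% formic acid gradient.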

A short description of data set [2]: Rat plasma half-life assay (LC-MS). The following applies: incubated at 37° C., read-out: Rat Plasma T½ (converted). Type of data set: in vitro ADME. The essentials:
as §1

Each structure is given as a SMILES string. Where a SMILES comes first, the peptide text is derived from it. [ ]: non-standard residue; d: D form. The star is where a group is joined. Ac6c = NC1(C(=O)O)CCCCC1; X1 = CCCN1C(=O)CC(*)C1=O

Here are results for eight molecules from patent publication US8450266B2 (Ipsen Pharma S.A.S., priority 2008, dated 2013).

With `CC[C@H](C)[C@H](NC(=O)[C@H](CO)NC(=O)[C@H](Cc1ccc(O)cc1)NC(=O)[C@H](CC(=O)O)NC(=O)[C@H](CO)NC(=O)C1(NC(C)=O)CCCCC1)C(=O)N[C@@H](C)C(=O)N[C@@H](CCSC)C(=O)N[C@@H](CC(=O)O)C(=O)N[C@@H](CCCCN)C(=O)N[C@H](C(=O)N[C@@H](Cc1c[nH]cn1)C(=O)N[C@@H](CCC(N)=O)C(=O)N[C@@H](CCC(N)=O)C(=O)N[C@@H](CC(=O)O)C(=O)N[C@@H](Cc1ccccc1)C(=O)N[C@H](C(=O)N[C@@H](CC(N)=O)C(=O)N[C@@H](Cc1c[nH]c2ccccc12)C(=O)N[C@@H](CC(C)C)C(=O)N[C@@H](CC(C)C)C(=O)N[C@@H](C)C(=O)N[C@@H](CCC(N)=O)C(=O)N[C@@H](CCCCN)C(=O)N[C@@H](Cc1ccc2ccccc2c1)C(=O)N[C@@H](CCCCN)C(=O)N[C@@H](CCCCN)C(=O)N[C@@H](CC(N)=O)C(=O)N[C@@H](CC(=O)O)C(=O)N[C@@H](Cc1c[nH]c2ccccc12)C(=O)N[C@@H](CCCCN)C(=O)N[C@@H](Cc1c[nH]cn1)C(=O)N[C@@H](CC(N)=O)C(=O)N[C@H](C(=O)N[C@H](C(=O)N[C@@H](CCC(N)=O)C(=O)O)[C@@H](C)O)[C@@H](C)CC)C(C)C)[C@@H](C)CC` [Example 24, (Ac-A6c^7, 2Nal^31)hGIP(7-42)-OH] (HELM PEPTIDE1{[ac].[O=C(C1(N[*:1])CCCCC1)[*:2]].S.D.Y.S.I.A.M.D.K.I.H.Q.Q.D.F.V.N.W.L.L.A.Q.K.[O=C([C@H](Cc1ccc2ccccc2c1)N[*:1])[*:2]].K.K.N.D.W.K.H.N.I.T.Q}$$$$V2.0), the half-life at 0.1 mg/mL was 26.3 h in data set [1] and 12.2 h in data set [2].
With `CC[C@H](C)[C@H](NC(=O)[C@H](CO)NC(=O)[C@H](Cc1ccc(O)cc1)NC(=O)[C@H](CC(=O)O)NC(=O)[C@H](CO)NC(=O)C1(NC(C)=O)CCCCC1)C(=O)N[C@@H](C)C(=O)N[C@@H](CCSC)C(=O)N[C@@H](CC(=O)O)C(=O)N[C@@H](CCCCN)C(=O)N[C@H](C(=O)N[C@@H](Cc1c[nH]cn1)C(=O)N[C@@H](CCC(N)=O)C(=O)N[C@@H](CCC(N)=O)C(=O)N[C@@H](CC(=O)O)C(=O)N[C@@H](Cc1ccccc1)C(=O)N[C@H](C(=O)N[C@@H](CC(N)=O)C(=O)N[C@@H](Cc1c[nH]c2ccccc12)C(=O)N[C@@H](CC(C)C)C(=O)N[C@@H](CC(C)C)C(=O)N[C@@H](C)C(=O)N[C@@H](CCC(N)=O)C(=O)N[C@@H](CCCCN)C(=O)N[C@H](Cc1ccc2ccccc2c1)C(=O)N[C@@H](CCCCN)C(=O)N[C@@H](CCCCN)C(=O)N[C@@H](CC(N)=O)C(=O)N[C@@H](CC(=O)O)C(=O)N[C@@H](Cc1c[nH]c2ccccc12)C(=O)N[C@@H](CCCCN)C(=O)N[C@@H](Cc1c[nH]cn1)C(=O)N[C@@H](CC(N)=O)C(=O)N[C@H](C(=O)N[C@H](C(=O)N[C@@H](CCC(N)=O)C(=O)O)[C@@H](C)O)[C@@H](C)CC)C(C)C)[C@@H](C)CC` [Example 25, (Ac-A6c^7, D-2Nal^31)hGIP(7-42)-OH] (HELM PEPTIDE1{[ac].[O=C(C1(N[*:1])CCCCC1)[*:2]].S.D.Y.S.I.A.M.D.K.I.H.Q.Q.D.F.V.N.W.L.L.A.Q.K.[O=C([C@@H](Cc1ccc2ccccc2c1)N[*:1])[*:2]].K.K.N.D.W.K.H.N.I.T.Q}$$$$V2.0), the half-life at 0.1 mg/mL was greater than 50 h in data set [1] and 13.7 h in data set [2].
On the same counts, the results for `CCCN1C(=O)CC(SC[C@H](NC(=O)[C@H](CCCCN)NC(=O)[C@H](CCC(N)=O)NC(=O)[C@H](C)NC(=O)[C@H](CC(C)C)NC(=O)[C@H](CC(C)C)NC(=O)[C@H](Cc2c[nH]c3ccccc23)NC(=O)[C@H](CC(N)=O)NC(=O)[C@@H](NC(=O)[C@H](Cc2ccccc2)NC(=O)[C@H](CC(=O)O)NC(=O)[C@H](CCC(N)=O)NC(=O)[C@H](CCC(N)=O)NC(=O)[C@H](Cc2c[nH]cn2)NC(=O)[C@@H](NC(=O)[C@H](CCCCN)NC(=O)[C@H](CC(=O)O)NC(=O)[C@H](CCSC)NC(=O)[C@H](C)NC(=O)[C@@H](NC(=O)[C@H](CO)NC(=O)[C@H](Cc2ccc(O)cc2)NC(=O)[C@H](CC(=O)O)NC(=O)[C@H](CO)NC(=O)C2(NC(C)=O)CCCCC2)[C@@H](C)CC)[C@@H](C)CC)C(C)C)C(=O)N[C@@H](CCCCN)C(=O)N[C@@H](CCCCN)C(=O)N[C@@H](CC(N)=O)C(N)=O)C1=O` (stereo partly shown) [Example 28, (Ac-A6c^7, Cys(Psu)^31]hGIP(7-34)-NH2] are 8.8 h and 4.1 h.
Turning to `CCCN1C(=O)CC(SC[C@H](NC(=O)[C@H](CCCCN)NC(=O)[C@H](CCC(N)=O)NC(=O)[C@H](C)NC(=O)[C@H](CC(C)C)NC(=O)[C@H](CC(C)C)NC(=O)[C@H](Cc2c[nH]c3ccccc23)NC(=O)[C@H](CC(N)=O)NC(=O)[C@@H](NC(=O)[C@H](Cc2ccccc2)NC(=O)[C@H](CC(=O)O)NC(=O)[C@H](CCC(N)=O)NC(=O)[C@H](CCC(N)=O)NC(=O)[C@H](Cc2c[nH]cn2)NC(=O)[C@@H](NC(=O)[C@H](CCCCN)NC(=O)[C@H](CC(=O)O)NC(=O)[C@H](CCSC)NC(=O)[C@H](C)NC(=O)[C@@H](NC(=O)[C@H](CO)NC(=O)[C@H](Cc2ccc(O)cc2)NC(=O)[C@H](CC(=O)O)NC(=O)[C@H](CO)NC(=O)C2(NC(C)=O)CCCCC2)[C@@H](C)CC)[C@@H](C)CC)C(C)C)C(N)=O)C1=O` (stereo partly shown) [Example 29, [Ac-A6c^7, Cys(Psu)^31]hGIP(7-31)-NH2], the half-life at 0.1 mg/mL in data set [1] is 12.2 h; in data set [2] it was 7 h.
As for `CCCN1C(=O)CC(SC[C@H](NC(=O)[C@H](CCCCN)NC(=O)[C@H](CCC(N)=O)NC(=O)[C@H](C)NC(=O)[C@H](CC(C)C)NC(=O)[C@H](CC(C)C)NC(=O)[C@H](Cc2c[nH]c3ccccc23)NC(=O)[C@H](CC(N)=O)NC(=O)[C@@H](NC(=O)[C@H](Cc2ccccc2)NC(=O)[C@H](CC(=O)O)NC(=O)[C@H](CCC(N)=O)NC(=O)[C@H](CCC(N)=O)NC(=O)[C@H](Cc2c[nH]cn2)NC(=O)[C@@H](NC(=O)[C@H](CCCCN)NC(=O)[C@H](CC(=O)O)NC(=O)[C@H](CCSC)NC(=O)[C@H](C)NC(=O)[C@@H](NC(=O)[C@H](CO)NC(=O)[C@H](Cc2ccc(O)cc2)NC(=O)[C@H](CC(=O)O)NC(=O)[C@H](CO)NC(=O)C2(NC(=O)[C@H](Cc3ccccc3)NC(C)=O)CCCCC2)[C@@H](C)CC)[C@@H](C)CC)C(C)C)C(=O)N[C@@H](CCCCN)C(=O)N[C@@H](CCCCN)C(=O)N[C@@H](CC(N)=O)C(=O)N[C@@H](CC(=O)O)C(=O)N[C@@H](Cc2c[nH]c3ccccc23)C(=O)N[C@@H](CCCCN)C(=O)N[C@@H](Cc2c[nH]cn2)C(=O)N[C@@H](CC(N)=O)C(=O)N[C@H](C(=O)N[C@H](C(=O)N[C@@H](CCC(N)=O)C(=O)O)[C@@H](C)O)[C@@H](C)CC)C1=O` (stereo partly shown) [Example 30, [Ac-Phe^6, A6c^7, Cys(Psu)^31]hGIP(6-42)-OH] (Ac-F[Ac6c]SDYSIAMDKIHQQDFVNWLLAQKC(X1)KKNDWKHNITQ-OH), the figures for the half-life at 0.1 mg/mL in data set [1] and in data set [2] were 7.2 h and 7.6 h, respectively.
On the same counts, the results for `CCCN1C(=O)CC(SC[C@H](NC(=O)[C@H](CCCCN)NC(=O)[C@H](CCC(N)=O)NC(=O)[C@H](C)NC(=O)[C@H](CC(C)C)NC(=O)[C@H](CC(C)C)NC(=O)[C@H](Cc2c[nH]c3ccccc23)NC(=O)[C@H](CC(N)=O)NC(=O)[C@@H](NC(=O)[C@H](Cc2ccccc2)NC(=O)[C@H](CC(=O)O)NC(=O)[C@H](CCC(N)=O)NC(=O)[C@H](CCC(N)=O)NC(=O)[C@H](Cc2c[nH]cn2)NC(=O)[C@@H](NC(=O)[C@H](CCCCN)NC(=O)[C@H](CC(=O)O)NC(=O)[C@H](CCSC)NC(=O)[C@H](C)NC(=O)[C@@H](NC(=O)[C@H](CO)NC(=O)[C@H](Cc2ccc(O)cc2)NC(=O)[C@H](CC(=O)O)NC(=O)[C@H](CO)NC(=O)C2(NC(=O)[C@@H](N)Cc3ccccc3)CCCCC2)[C@@H](C)CC)[C@@H](C)CC)C(C)C)C(=O)N[C@@H](CCCCN)C(=O)N[C@@H](CCCCN)C(=O)N[C@@H](CC(N)=O)C(=O)N[C@@H](CC(=O)O)C(=O)N[C@@H](Cc2c[nH]c3ccccc23)C(=O)N[C@@H](CCCCN)C(=O)N[C@@H](Cc2c[nH]cn2)C(=O)N[C@@H](CC(N)=O)C(=O)N[C@H](C(=O)N[C@H](C(=O)N[C@@H](CCC(N)=O)C(=O)O)[C@@H](C)O)[C@@H](C)CC)C1=O` (stereo partly shown) [Example 31, [A6c^7, Cys(Psu)^31]hGIP(6-42)-OH] (H-F[Ac6c]SDYSIAMDKIHQQDFVNWLLAQKC(X1)KKNDWKHNITQ-OH) are 4.4 h and 5.1 h.
As for `CC[C@H](C)[C@H](NC(=O)[C@H](CO)NC(=O)[C@H](Cc1ccc(O)cc1)NC(=O)[C@H](CC(=O)O)NC(=O)[C@H](CO)NC(=O)C1(NC(=O)[C@H](Cc2ccccc2)NC(C)=O)CCCCC1)C(=O)N[C@@H](C)C(=O)N[C@@H](CCSC)C(=O)N[C@@H](CC(=O)O)C(=O)N[C@@H](CCCCN)C(=O)N[C@H](C(=O)N[C@@H](Cc1c[nH]cn1)C(=O)N[C@@H](CCC(N)=O)C(=O)N[C@@H](CCC(N)=O)C(=O)N[C@@H](CC(=O)O)C(=O)N[C@@H](Cc1ccccc1)C(=O)N[C@H](C(=O)N[C@@H](CC(N)=O)C(=O)N[C@@H](Cc1c[nH]c2ccccc12)C(=O)N[C@@H](CC(C)C)C(=O)N[C@@H](CC(C)C)C(=O)N[C@@H](C)C(=O)N[C@@H](CCC(N)=O)C(=O)N[C@@H](CCCCN)C(N)=O)C(C)C)[C@@H](C)CC` [Example 32, (Ac-Phe^6, A6c^7)hGIP(6-30)-NH2], the half-life at 0.1 mg/mL in data set [1] was 24.1 h; in data set [2] it was 60.3 h.
On the same counts, the results for `CCCN1C(=O)CC(SC[C@H](NC(=O)[C@H](CCCCN)NC(=O)[C@H](CCC(N)=O)NC(=O)[C@H](C)NC(=O)[C@H](CC(C)C)NC(=O)[C@H](CC(C)C)NC(=O)[C@H](Cc2c[nH]c3ccccc23)NC(=O)[C@H](CC(N)=O)NC(=O)[C@@H](NC(=O)[C@H](Cc2ccccc2)NC(=O)[C@H](CC(=O)O)NC(=O)[C@H](CCC(N)=O)NC(=O)[C@H](CCC(N)=O)NC(=O)[C@H](Cc2c[nH]cn2)NC(=O)[C@@H](NC(=O)[C@H](CCCCN)NC(=O)[C@H](CC(=O)O)NC(=O)[C@H](CCSC)NC(=O)[C@H](C)NC(=O)[C@@H](NC(=O)[C@H](CO)NC(=O)[C@H](Cc2ccc(O)cc2)NC(=O)[C@H](CC(=O)O)NC(=O)[C@H](CO)NC(=O)C2(NC(=O)[C@H](Cc3ccccc3)NC(C)=O)CCCCC2)[C@@H](C)CC)[C@@H](C)CC)C(C)C)C(N)=O)C1=O` (stereo partly shown) [Example 33, [Ac-Phe^6, A6c^7, Cys(Psu)^31]hGIP(6-31)-NH2] are 13.6 h and 10.2 h.
